ChEMBL document CHEMBL4507305, “Data for DCP probe TP-024” (2021)

Key:
[1] = biological target: Atypical kinase COQ8A, mitochondrial (Homo sapiens) (UniProt Q8NI60); conditions: Compound concentration 1000.0 nM
[2] = biological target: RAC-gamma serine/threonine-protein kinase (Homo sapiens) (UniProt Q9Y243); conditions: Compound concentration 1000.0 nM
[3] = biological target: Aurora kinase C (Homo sapiens) (UniProt Q9UQB9); conditions: Compound concentration 1000.0 nM
[4] = biological target: Calcium/calmodulin-dependent protein kinase type 1D (Homo sapiens) (UniProt Q8IU85); conditions: Compound concentration 1000.0 nM
[5] = biological target: Calcium/calmodulin-dependent protein kinase type 1G (Homo sapiens) (UniProt Q96NX5); conditions: Compound concentration 1000.0 nM
[6] = biological target: Citron Rho-interacting kinase (Homo sapiens) (UniProt O14578); conditions: Compound concentration 1000.0 nM
[7] = biological target: Macrophage colony-stimulating factor 1 receptor (Homo sapiens) (UniProt P07333); conditions: Compound concentration 1000.0 nM
[8] = biological target: Casein kinase I isoform gamma-1 (Homo sapiens) (UniProt Q9HCP0); conditions: Compound concentration 1000.0 nM
[9] = biological target: Mitogen-activated protein kinase kinase kinase 12 (Homo sapiens) (UniProt Q12852); conditions: Compound concentration 1000.0 nM
[10] = biological target: Dual specificity tyrosine-phosphorylation-regulated kinase 1A (Homo sapiens) (UniProt Q13627); conditions: Compound concentration 1000.0 nM
[11] = system: Epidermal growth factor receptor (Homo sapiens), P00533 [G719S]; conditions: Compound concentration 1000.0 nM
[12] = biological target: Ephrin type-B receptor 1 (Homo sapiens) (UniProt P54762); conditions: Compound concentration 1000.0 nM
[13] = system: Receptor-type tyrosine-protein kinase FLT3 (Homo sapiens), P36888 [UNDEFINED MUTATION]; conditions: Compound concentration 1000.0 nM
[14] = system: Receptor-type tyrosine-protein kinase FLT3 (Homo sapiens), P36888 [UNDEFINED MUTATION]; conditions: Compound concentration 1000.0 nM; remark: listed apart in the source
[15] = biological target: Tyrosine-protein kinase Fyn (Homo sapiens) (UniProt P06241); conditions: Compound concentration 1000.0 nM
[16] = biological target: Rhodopsin kinase GRK7 (Homo sapiens) (UniProt Q8WTQ7); conditions: Compound concentration 1000.0 nM
[17] = biological target: Interleukin-1 receptor-associated kinase 1 (Homo sapiens) (UniProt P51617); conditions: Compound concentration 1000.0 nM
[18] = biological target: Tyrosine-protein kinase JAK1 (Homo sapiens) (UniProt P23458); conditions: Compound concentration 1000.0 nM
[19] = biological target: Mitogen-activated protein kinase kinase kinase 13 (Homo sapiens) (UniProt O43283); conditions: Compound concentration 1000.0 nM
[20] = biological target: Microtubule-associated serine/threonine-protein kinase 1 (Homo sapiens) (UniProt Q9Y2H9); conditions: Compound concentration 1000.0 nM
[21] = biological target: Dual specificity mitogen-activated protein kinase kinase 6 (Homo sapiens) (UniProt P52564); conditions: Compound concentration 1000.0 nM
[22] = biological target: Dual specificity mitogen-activated protein kinase kinase 7 (Homo sapiens) (UniProt O14733); conditions: Compound concentration 1000.0 nM
[23] = biological target: Serine/threonine-protein kinase 4 (Homo sapiens) (UniProt Q13043); conditions: Compound concentration 1000.0 nM
[24] = biological target: Myosin light chain kinase, smooth muscle (Homo sapiens) (UniProt Q15746); conditions: Compound concentration 1000.0 nM
[25] = biological target: Serine/threonine-protein kinase Nek10 (Homo sapiens) (UniProt Q6ZWH5); conditions: Compound concentration 1000.0 nM
[26] = biological target: Serine/threonine-protein kinase PAK 4 (Homo sapiens) (UniProt O96013); conditions: Compound concentration 1000.0 nM
[27] = biological target: Phosphatidylinositol 5-phosphate 4-kinase type-2 gamma (Homo sapiens) (UniProt Q8TBX8); conditions: Compound concentration 1000.0 nM
[28] = biological target: Protein kinase C delta type (Homo sapiens) (UniProt Q05655); conditions: Compound concentration 1000.0 nM
[29] = biological target: Interferon-induced, double-stranded RNA-activated protein kinase (Homo sapiens) (UniProt P19525); conditions: Compound concentration 1000.0 nM
[30] = system: Proto-oncogene tyrosine-protein kinase receptor Ret (Homo sapiens), P07949 [V804M]; conditions: Compound concentration 1000.0 nM
[31] = biological target: Proto-oncogene tyrosine-protein kinase ROS (Homo sapiens) (UniProt P08922); conditions: Compound concentration 1000.0 nM
[32] = biological target: Ribosomal protein S6 kinase alpha-5 (Homo sapiens) (UniProt O75582); conditions: Compound concentration 1000.0 nM
[33] = biological target: Ribosomal protein S6 kinase alpha-1 (Homo sapiens) (UniProt Q15418); conditions: Compound concentration 1000.0 nM
[34] = biological target: Ribosomal protein S6 kinase alpha-2 (Homo sapiens) (UniProt Q15349); conditions: Compound concentration 1000.0 nM
[35] = biological target: Ribosomal protein S6 kinase alpha-6 (Homo sapiens) (UniProt Q9UK32); conditions: Compound concentration 1000.0 nM
[36] = biological target: SRSF protein kinase 1 (Homo sapiens) (UniProt Q96SB4); conditions: Compound concentration 1000.0 nM
[37] = biological target: BDNF/NT-3 growth factors receptor (Homo sapiens) (UniProt Q16620); conditions: Compound concentration 1000.0 nM
[38] = biological target: Tyrosine-protein kinase TXK (Homo sapiens) (UniProt P42681); conditions: Compound concentration 1000.0 nM
[39] = biological target: Serine/threonine-protein kinase 32A (Homo sapiens) (UniProt Q8WU08); conditions: Compound concentration 1000.0 nM
[40] = biological target: 5-hydroxytryptamine receptor 1E (Homo sapiens) (UniProt P28566); conditions: Compound concentration 10.0 uM
[41] = biological target: 5-hydroxytryptamine receptor 2A (Homo sapiens) (UniProt P28223); conditions: Compound concentration 10.0 uM
[42] = biological target: 5-hydroxytryptamine receptor 3A (Homo sapiens) (UniProt P46098); conditions: Compound concentration 10.0 uM
[43] = biological target: Delta-type opioid receptor (Homo sapiens) (UniProt P41143); conditions: Compound concentration 10.0 uM
[44] = biological target: Beta-1 adrenergic receptor (Homo sapiens) (UniProt P08588); conditions: Compound concentration 10.0 uM
[45] = biological target: Beta-3 adrenergic receptor (Homo sapiens) (UniProt P13945); conditions: Compound concentration 10.0 uM
Chain of Beta-3 adrenergic receptor (Homo sapiens) (P13945 whole entry, looked up): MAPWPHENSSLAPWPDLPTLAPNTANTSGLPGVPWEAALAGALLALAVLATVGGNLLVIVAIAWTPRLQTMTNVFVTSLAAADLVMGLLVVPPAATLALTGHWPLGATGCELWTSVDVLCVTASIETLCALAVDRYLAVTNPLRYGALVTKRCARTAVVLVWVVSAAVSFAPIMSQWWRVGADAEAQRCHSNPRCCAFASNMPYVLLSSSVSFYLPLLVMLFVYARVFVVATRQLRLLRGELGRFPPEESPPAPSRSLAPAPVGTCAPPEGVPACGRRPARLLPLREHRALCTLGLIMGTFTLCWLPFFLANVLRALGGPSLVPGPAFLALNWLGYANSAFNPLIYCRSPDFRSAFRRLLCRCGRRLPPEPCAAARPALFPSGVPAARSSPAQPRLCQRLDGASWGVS

Chain of Receptor-type tyrosine-protein kinase FLT3 (Homo sapiens), P36888 [UNDEFINED MUTATION] (P36888 whole entry, looked up, change not shown): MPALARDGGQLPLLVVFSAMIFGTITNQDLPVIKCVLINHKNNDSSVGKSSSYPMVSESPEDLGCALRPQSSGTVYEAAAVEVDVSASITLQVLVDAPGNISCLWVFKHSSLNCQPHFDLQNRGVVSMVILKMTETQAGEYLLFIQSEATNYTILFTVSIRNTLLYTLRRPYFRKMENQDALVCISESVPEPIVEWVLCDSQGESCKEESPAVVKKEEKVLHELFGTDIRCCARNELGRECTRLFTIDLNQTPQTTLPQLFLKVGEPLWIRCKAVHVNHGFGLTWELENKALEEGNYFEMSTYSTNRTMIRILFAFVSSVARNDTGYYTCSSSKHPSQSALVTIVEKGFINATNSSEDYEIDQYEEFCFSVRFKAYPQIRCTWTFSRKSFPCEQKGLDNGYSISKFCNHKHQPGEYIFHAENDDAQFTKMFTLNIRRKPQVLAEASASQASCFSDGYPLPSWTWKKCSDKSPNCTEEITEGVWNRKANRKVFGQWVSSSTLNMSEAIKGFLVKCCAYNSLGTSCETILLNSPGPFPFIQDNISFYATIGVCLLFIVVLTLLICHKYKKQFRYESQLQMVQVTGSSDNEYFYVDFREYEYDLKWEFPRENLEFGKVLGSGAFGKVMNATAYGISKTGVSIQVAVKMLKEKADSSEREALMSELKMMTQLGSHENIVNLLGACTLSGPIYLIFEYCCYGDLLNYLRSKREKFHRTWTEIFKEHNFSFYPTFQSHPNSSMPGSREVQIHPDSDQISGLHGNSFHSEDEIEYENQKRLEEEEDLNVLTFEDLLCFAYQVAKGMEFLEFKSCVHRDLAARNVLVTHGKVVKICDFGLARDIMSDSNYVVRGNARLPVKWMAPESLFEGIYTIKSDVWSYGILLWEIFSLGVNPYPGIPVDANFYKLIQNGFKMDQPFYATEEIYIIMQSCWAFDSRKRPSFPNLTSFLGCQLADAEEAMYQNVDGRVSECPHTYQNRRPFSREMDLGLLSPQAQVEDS
Chain of Calcium/calmodulin-dependent protein kinase type 1D (Homo sapiens) (Q8IU85 whole entry, looked up): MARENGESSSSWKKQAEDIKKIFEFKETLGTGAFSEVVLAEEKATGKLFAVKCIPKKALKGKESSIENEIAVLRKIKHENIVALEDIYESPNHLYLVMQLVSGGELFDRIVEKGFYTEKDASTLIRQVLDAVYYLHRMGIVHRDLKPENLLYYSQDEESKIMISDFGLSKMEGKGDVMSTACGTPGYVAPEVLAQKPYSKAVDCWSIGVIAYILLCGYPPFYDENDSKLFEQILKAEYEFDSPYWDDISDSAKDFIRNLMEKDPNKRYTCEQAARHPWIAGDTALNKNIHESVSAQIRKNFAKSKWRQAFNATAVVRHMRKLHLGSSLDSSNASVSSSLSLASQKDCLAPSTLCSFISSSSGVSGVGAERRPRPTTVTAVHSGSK
Chain of Ribosomal protein S6 kinase alpha-6 (Homo sapiens) (Q9UK32 whole entry): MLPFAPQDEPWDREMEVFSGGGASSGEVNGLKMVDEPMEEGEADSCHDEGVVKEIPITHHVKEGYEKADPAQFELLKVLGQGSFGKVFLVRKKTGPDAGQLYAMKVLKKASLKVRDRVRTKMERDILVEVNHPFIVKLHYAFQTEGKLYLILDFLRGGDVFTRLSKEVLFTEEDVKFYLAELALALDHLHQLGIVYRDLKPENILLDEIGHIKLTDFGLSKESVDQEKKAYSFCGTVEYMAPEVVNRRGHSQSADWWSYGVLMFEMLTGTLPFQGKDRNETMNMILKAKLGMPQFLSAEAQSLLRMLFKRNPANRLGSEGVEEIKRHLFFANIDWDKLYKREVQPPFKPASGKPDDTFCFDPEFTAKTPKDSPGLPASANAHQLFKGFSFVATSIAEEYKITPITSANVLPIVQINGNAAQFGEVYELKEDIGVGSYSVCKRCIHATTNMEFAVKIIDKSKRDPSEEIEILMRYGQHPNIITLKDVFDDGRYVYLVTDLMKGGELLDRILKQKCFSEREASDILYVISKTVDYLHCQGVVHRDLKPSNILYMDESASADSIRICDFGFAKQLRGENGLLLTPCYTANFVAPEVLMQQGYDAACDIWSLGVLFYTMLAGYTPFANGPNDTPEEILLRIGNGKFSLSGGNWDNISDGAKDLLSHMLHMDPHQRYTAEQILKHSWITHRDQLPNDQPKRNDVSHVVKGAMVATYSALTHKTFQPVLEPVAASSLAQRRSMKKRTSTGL
Chain of SRSF protein kinase 1 (Homo sapiens) (Q96SB4 whole entry): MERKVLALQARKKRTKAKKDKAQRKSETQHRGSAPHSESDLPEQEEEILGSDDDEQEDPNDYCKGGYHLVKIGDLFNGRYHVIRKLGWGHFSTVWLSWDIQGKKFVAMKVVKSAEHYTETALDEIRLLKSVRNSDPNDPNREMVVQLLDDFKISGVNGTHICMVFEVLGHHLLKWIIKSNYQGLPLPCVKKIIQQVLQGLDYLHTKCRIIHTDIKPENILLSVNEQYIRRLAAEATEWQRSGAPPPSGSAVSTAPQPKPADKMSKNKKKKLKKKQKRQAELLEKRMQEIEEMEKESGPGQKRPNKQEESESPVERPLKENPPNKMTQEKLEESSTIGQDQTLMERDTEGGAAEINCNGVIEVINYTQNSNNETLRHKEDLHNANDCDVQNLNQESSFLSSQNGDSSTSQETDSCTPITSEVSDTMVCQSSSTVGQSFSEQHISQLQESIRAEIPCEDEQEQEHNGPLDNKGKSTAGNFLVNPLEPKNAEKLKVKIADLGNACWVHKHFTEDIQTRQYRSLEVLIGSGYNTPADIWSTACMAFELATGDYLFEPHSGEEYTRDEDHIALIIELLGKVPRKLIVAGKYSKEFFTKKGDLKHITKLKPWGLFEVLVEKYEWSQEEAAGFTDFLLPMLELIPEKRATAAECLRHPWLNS
Chain of Myosin light chain kinase, smooth muscle (Homo sapiens) (Q15746 whole entry): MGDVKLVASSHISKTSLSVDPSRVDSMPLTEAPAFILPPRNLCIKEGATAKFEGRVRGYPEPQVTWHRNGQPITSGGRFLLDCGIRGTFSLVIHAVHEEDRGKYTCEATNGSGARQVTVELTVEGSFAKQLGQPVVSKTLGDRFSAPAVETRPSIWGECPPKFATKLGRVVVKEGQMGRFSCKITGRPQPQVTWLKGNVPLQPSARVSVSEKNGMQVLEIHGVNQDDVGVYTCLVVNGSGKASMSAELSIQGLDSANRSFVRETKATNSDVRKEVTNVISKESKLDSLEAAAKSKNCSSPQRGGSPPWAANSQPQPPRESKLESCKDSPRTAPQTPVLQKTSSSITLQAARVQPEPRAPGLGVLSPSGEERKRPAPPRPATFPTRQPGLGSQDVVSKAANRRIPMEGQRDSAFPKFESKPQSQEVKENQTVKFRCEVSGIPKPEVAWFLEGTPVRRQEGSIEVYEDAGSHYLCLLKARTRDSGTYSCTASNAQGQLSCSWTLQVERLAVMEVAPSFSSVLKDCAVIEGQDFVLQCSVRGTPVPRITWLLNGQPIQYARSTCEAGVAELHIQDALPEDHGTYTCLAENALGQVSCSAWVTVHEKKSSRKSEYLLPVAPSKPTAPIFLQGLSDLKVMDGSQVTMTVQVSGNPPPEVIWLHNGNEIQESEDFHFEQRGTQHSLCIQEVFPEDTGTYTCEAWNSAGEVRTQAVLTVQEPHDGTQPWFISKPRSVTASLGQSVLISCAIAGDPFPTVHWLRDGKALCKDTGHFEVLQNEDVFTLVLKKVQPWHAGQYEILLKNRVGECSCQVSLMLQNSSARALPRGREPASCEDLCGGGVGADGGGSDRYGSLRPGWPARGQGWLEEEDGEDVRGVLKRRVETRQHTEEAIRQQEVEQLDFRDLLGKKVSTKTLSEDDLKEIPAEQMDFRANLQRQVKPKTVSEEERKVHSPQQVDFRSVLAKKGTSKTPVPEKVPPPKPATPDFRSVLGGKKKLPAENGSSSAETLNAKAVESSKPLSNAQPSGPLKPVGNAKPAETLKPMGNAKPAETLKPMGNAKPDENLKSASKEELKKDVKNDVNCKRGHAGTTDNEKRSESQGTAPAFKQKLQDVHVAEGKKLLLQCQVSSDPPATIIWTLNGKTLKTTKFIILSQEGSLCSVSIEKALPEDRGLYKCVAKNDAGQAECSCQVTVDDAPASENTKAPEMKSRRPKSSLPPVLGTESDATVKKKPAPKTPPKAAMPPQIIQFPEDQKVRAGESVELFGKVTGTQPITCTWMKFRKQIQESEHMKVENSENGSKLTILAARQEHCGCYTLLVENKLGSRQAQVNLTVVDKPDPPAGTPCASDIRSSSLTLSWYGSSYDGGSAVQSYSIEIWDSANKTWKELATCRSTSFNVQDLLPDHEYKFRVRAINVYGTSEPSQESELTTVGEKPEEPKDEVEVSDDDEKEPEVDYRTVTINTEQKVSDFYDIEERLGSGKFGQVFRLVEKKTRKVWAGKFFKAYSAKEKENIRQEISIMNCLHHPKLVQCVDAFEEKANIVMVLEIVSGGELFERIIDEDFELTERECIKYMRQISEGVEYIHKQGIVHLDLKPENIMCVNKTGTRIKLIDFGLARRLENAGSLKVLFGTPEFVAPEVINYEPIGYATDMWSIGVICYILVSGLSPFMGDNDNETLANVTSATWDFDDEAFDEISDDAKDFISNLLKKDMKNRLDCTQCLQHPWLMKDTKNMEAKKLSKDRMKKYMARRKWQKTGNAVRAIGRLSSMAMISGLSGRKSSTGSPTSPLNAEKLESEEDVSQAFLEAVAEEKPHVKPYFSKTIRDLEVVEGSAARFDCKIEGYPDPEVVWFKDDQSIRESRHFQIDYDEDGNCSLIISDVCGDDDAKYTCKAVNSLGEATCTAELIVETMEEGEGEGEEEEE

Cc1cc(-n2nc(Cc3cc(F)cc(C(F)(F)F)c3)nc2C)ccc1C(N)=O [TP-024]
residual activity [1]: 100% | residual activity [2]: 100% | residual activity [3]: 100% | residual activity [4]: 96% | residual activity [5]: 100% | residual activity [6]: 95% | residual activity [7]: 100% | residual activity [8]: 100% | residual activity [9]: 100% | residual activity [10]: 92% | residual activity [11]: 100% | residual activity [12]: 97% | residual activity [13]: 100% | residual activity [14]: 100% | residual activity [15]: 100% | residual activity [16]: 100% | residual activity [17]: 100% | residual activity [18]: 100% | residual activity [19]: 100% | residual activity [20]: 100% | residual activity [21]: 83% | residual activity [22]: 100% | residual activity [23]: 100% | residual activity [24]: 100% | residual activity [25]: 100% | residual activity [26]: 100% | residual activity [27]: 100% | residual activity [28]: 88% | residual activity [29]: 62% | residual activity [30]: 100% | residual activity [31]: 87% | residual activity [32]: 88% | residual activity [33]: 100% | residual activity [34]: 100% | residual activity [35]: 89% | residual activity [36]: 81% | residual activity [37]: 98% | residual activity [38]: 84% | residual activity [39]: 85% | inhibition [40]: 10.5% | inhibition [41]: 10.5% | inhibition [42]: 5.45% | inhibition [43]: -1.45% | inhibition [44]: 11.8% | inhibition [45]: 4.48%

Cc1nc(Cc2cccc(C(F)(F)F)c2)sc1-c1ccc(C(N)=O)nc1 [TP-024n]
residual activity [1]: 62% | residual activity [2]: 92% | residual activity [3]: 100% | residual activity [4]: 94% | residual activity [5]: 99% | residual activity [6]: 65% | residual activity [7]: 100% | residual activity [8]: 97% | residual activity [9]: 100% | residual activity [10]: 67% | residual activity [11]: 67% | residual activity [12]: 100% | residual activity [13]: 100% | residual activity [14]: 100% | residual activity [15]: 100% | residual activity [16]: 100% | residual activity [17]: 100% | residual activity [18]: 92% | residual activity [19]: 100% | residual activity [20]: 100% | residual activity [21]: 69% | residual activity [22]: 100% | residual activity [23]: 100% | residual activity [24]: 95% | residual activity [25]: 100% | residual activity [26]: 96% | residual activity [27]: 0.3% | residual activity [28]: 79% | residual activity [29]: 49% | residual activity [30]: 88% | residual activity [31]: 94% | residual activity [32]: 83% | residual activity [33]: 100% | residual activity [34]: 95% | residual activity [35]: 91% | residual activity [36]: 75% | residual activity [37]: 84% | residual activity [38]: 70% | residual activity [39]: 76% | inhibition [40]: 9.13% | inhibition [41]: 20.4% | inhibition [42]: 4.72% | inhibition [43]: 4.01% | inhibition [44]: 7.56% | inhibition [45]: -1.63%
